Experimental data reported in patent US11850263B2, “Nanoparticles conjugated with vasoactive intestinal peptide antagonists” (Emory University, priority 2017, dated 2023).
“Also recorded” adds a separate entry of the source. No end group written: not given here.

Assays:
[1] = system: Bcl-2; experiment: Bcl-2 blot of protein lysates from patient T cell expansion cultures; type: cell-based, human; conditions: lysates on days 7 and 14; actin loading control
Procedure: Protein lysates from patient T cell expansion cultures were prepared on days 7 and 14. Samples were run on an SDS-PAGE gel prior to transfer to a nitrocellulose membrane. The membrane was then probed for the pro-survival Bcl-2 protein, stripped, and then re-probed for actin as a loading control.

[2] = system: DLBCL patient T cells; experiment: DLBCL patient T cell expansion for 14 days with CD3/CD28 beads and IL-2; type: cell-based, human
[3] = system: E.G7-OVA cells; experiment: E.G7-OVA lymphoma model, adoptive transfer of T cells expanded with the compounds; type: in vivo, Mice; conditions: OVA-expressing lymphoma model; T cells expanded 3 days with CD3/CD28 beads and IL-2, injected intravenously on day 7 of tumor growth
Procedure: Mice were injected subcutaneously with 5×10^5 E.G7-OVA cells that were allowed to grow for 7 days until a palpable tumor formed. During this period, OT-I, OT-II, and B6 T cells were expanded with CD3/CD28 beads in the presence of IL-2 and the indicated compounds for 3 days. On day 7 of tumor growth, mice were injected intravenously with a combination of expanded OT-I, OT-II, and B6 T cells (2×10^6 OT-I, 1×10^6 OT-II, and 2×10^6 B6 cells) or 2×10^6 B6 T cells as a control. Mice were then monitored for tumor growth that was calculated as (L×W^2)/2. FIG. 5B is a tumor growth curve showing the rate of growth among groups over time. Expansion of mouse T cells in the presence of Idelalisib, VIPhyb, or a combination of both enhances their therapeutic efficacy in an OVA-expressing lymphoma model.

[4] = system: senescent T cells from a patient with lymphoma; experiment: 10 day in vitro culture of senescent lymphoma patient T cells with anti-CD3/CD28 beads, flow cytometric analysis; type: cell-based, human; conditions: for fraction of senescent T cells that lacked both CD27 and CD28: control 55.2%; for numbers of effector memory T cells (Tem): 10-day cultures; for in vitro expansion of senescent T cells: as single agent or in combination
Procedure: Monocytes were depleted from the T cell sample, as monocytes are known to inhibit T cell expansion in cultures containing anti-CD3/CD28 beads. The effect of a range of idelalisib concentrations were compared alone and in combination with 3 uM VIP peptide antagonist (VIPhyb) or 1 ug/ml mast cell chymase, an enzyme that degrades endogenous VIP on T cell activation, differentiation and proliferation. Numbers of viable T cells were measured during a 10 day in vitro cultures as well as the T cell differentiation and activation profiles, focusing on the relative numbers of T cells with a senescent phenotype in which co-stimulatory receptors CD27 and CD28 are both absent (CD27−CD28−), to an activated phenotype, in which either CD27, CD28, or both co-stimulatory receptors are present (CD27+CD28+).
Aliquots of frozen patient apheresis products or PBMC from ficolled whole blood were rapidly thawed and rested overnight in complete RPMI 1640 supplemented with 10% fetal bovine serum, 100 U/mL penicillin, 100 μg/mL streptomycin, and 50 μM 2-mercaptoethanol (complete media). The following day, red blood cells were removed from apheresis products by ficoll gradient. The leukocytes were then enriched for T cells using an EasySep human T cell enrichment kit according to manufacturer's instructions. Cells were plated in 200 μL of complete media in each well of a 96 well flat-bottom plate. Compounds were added at the indicated concentrations, and the DMSO concentration was normalized to 0.1% for all wells. Anti-CD3/CD28 beads were added at a 1:1 bead:cell ratio. On day 7 post-stimulation, cells from each treatment were transferred to new media. Fresh compounds and beads were then added, and the cells were cultured for an additional 3 days. On day 10 post-initial stimulation, the beads were removed, and the cells were stained for flow cytometric analysis.
Cells were washed twice in PBS. The cells were also stained using a fixable viability dye. Surface markers were then stained by adding fluorochrome-conjugated antibodies to CD3, CD4, CD8, CD27, CD28, CD45RA, CD45RO, PD-1, and CCR7. To assess proliferation, half the cells were evaluated for expression of Ki67. Ki67 staining was performed using a FoxP3 intracellular staining kit. Just prior to running samples, Accucheck™ counting beads were added to each tube. Samples were acquired on a BD FACS Aria, and analysis was performed using FlowJo™ software. Viable cells were used in the analysis. The absolute numbers of cells was calculated for each population according to instructions provided by the manufacturer of the Accucheck™ counting beads.

[5] = system: luciferase B6 splenic T cells; experiment: One-way mixed lymphocyte reaction (MLR), luciferase B6 splenic T cells with irradiated FVB splenocytes; type: cell-based, mouse; conditions: for T-cell proliferation in MLR: 3 days, daily addition of VIP and/or VIPhyb, 0-10 mmol/L [sic]
Procedure: Proliferation of luciferase B6 splenic T cells cultured for 3 days in MLR with irradiated FVB splenocytes, with daily addition of VIP and/or VIPhyb to achieve the concentrations shown (0-10 mmol/L).
To explore the role of VIP signaling in allo-immune responses, one-way mixed lymphocyte reactions (MLR) were performed containing VIP and/or the antagonistic VIPhyb peptide. Addition of VIP decreased Luciferase T-cell proliferation in a dose-dependent manner, while adding VIPhyb increased T-cell proliferation.

[6] = cited from earlier work
[7] = system: PD-1 and PD-L1; conditions: activated T cells and dendritic cells, respectively; cited from earlier work
[8] = system: effector/memory CD8+ T cells and mature NK cells; conditions: mouse leukemia models; cited from earlier work
[9] = system: luciferase-expressing splenic T cells from B6 Luciferase mice; experiment: Bioluminescent MLR, B6 Luciferase splenic T cells with irradiated FVB splenic T cells (VIP, VIPhyb, VIPhyb-NP); type: cell-based, mouse; conditions: for effect on inhibitory effects of VIP on T cell proliferation in vitro: added on 3 consecutive days
Text: Splenocytes were extracted from WT and VIP-KO mice treated with B16-F0 and B16-F10 melanoma, and analyzed with flow cytometry for Granzyme B (GrZ B) and CD8 expression. VIPhyb was conjugated to a biocompatible, non-toxic 30 nm NP through emulsion polymerization and tested for purity and stability. A mixed lymphocyte reaction (MLR) using luciferase-expressing splenic T cells from B6 Luciferase mice were co-cultured with irradiated splenic T cells from FVB mice. VIP, VIPhyb, and VIPhyb-NP at concentrations of 0 ug/mL to 975 ug/mL were added to the MLR on 3 consecutive days and their effect on T cell proliferation assessed with bioluminescent imaging.

[10] = system: T-cells from the anergic lymphoma patient; experiment: Culture of sorted lymphoma patient T-cells with anti-CD3/anti-CD28 beads (Ki67, PD-1 by flow cytometry); type: cell-based, human
Text: Using high-speed cell sorting subsets of T-cells were isolated defined by their levels of CD27 and CD28 expression from the patient with relapsed lymphoma and a healthy control. CD3 positive T-cells with each of the four phenotypes defined by CD27 and CD28 expression were sorted and cultured in vitro in the presence of anti-CD^3/anti-CD28 beads. Total T-cells from healthy donors had 100% expression of the Ki67 proliferation marker following four days of culture. However, the corresponding total T-cell population from the patient with anergic T-cells following treatment for lymphoma had only 90% of T-cells expressing the Ki67 marker.
Following the daily addition of 3 uM VIPhyb to these cultures, the proportion of Ki67 positive T-cells from the anergic lymphoma patient was increased to 100%. […] In contrast, the T-cell subsets lacking expression of either CD27 or CD28 or both markers had impaired proliferated response when incubated with the anti-CD3/CD28 beads.
Addition of the antagonist VIPhyb augmented T-cell proliferation in the subsets lacking either CD27 or CD28.

[11] = system: luciferase positive splenic T cells (B6 Luc); experiment: One-way allogeneic MLR, B6 Luc T cells with irradiated B6 Albino stimulator cells, IVIS average radiance; type: cell-based, mouse
Procedure: Bioluminescent image of a 96-well MLR plate.
A one-way allogeneic mixed lymphocyte reaction (MLR) between luciferase positive splenic T cells (B6 Luc) and 20 Gy irradiated stimulator cells from B6 Albino mice were co-cultured at 37° C. in a 96-well black plate. VIPhyb-NP in concentrations 0-2.5 uM was added to each well, followed by VIP in concentrations of 0-10 uM, 30 minutes later. This treatment was administered daily for 3 days, and an IVIS spectrum was used to quantify photon intensity, which correlates to cell number, on day 3. An increase in average radiance indicates an increase in T cell proliferation.

[12] = inclusion during T cell activation

CC[C@H](Nc1ncnc2[nH]cnc12)c1nc2cccc(F)c2c(=O)n1-c1ccccc1 [idelalisib, (S)-2-(1-(9H-purin-6-ylamino)propyl)-5-fluoro-3-phenylquinazolin-4(3H)-one]
expression of Bcl-2 in lymphoma patient T cells [1]: increased | frequency of CD27+CD28+ cells [2]: increases | frequency of CD27−CD28− cells [2]: decreasing | number of viable T cells obtained [2, 12]: increases | proportion of naïve and central memory cells [2, 12]: increases | therapeutic efficacy of mouse T cells expanded in presence of the compounds [3]: enhances | fraction of senescent T cells that lacked both CD27 and CD28 ([4]; 10 nM idelalisib): 16.1% | numbers of effector memory T cells (Tem) [4]: increased | in vitro expansion of senescent T cells [4]: significantly expanded | proportion of T cells co-expressing CD27 and CD28 ([4]; idelalisib 1 uM or 100 nM, compared to control cultures): significantly increased

HSDAVFTDNYTRLRKQMAVKKYLNSILN [VIP]
T-cell proliferation in MLR [5]: decreased | half-life in vivo [6]: less than two

KPRRPYTDNYTRLRKQMAVKKYLNSILN [VIPhyb, peptide antagonist of VIP]
expression of PD-1 and PD-L1 [7]: down regulates | expression of Bcl-2 in lymphoma patient T cells [1]: increased | number of effector/memory CD8+ T cells and mature NK cells [8]: increases | T-cell proliferation in MLR [5]: increased; also recorded: augmented | effect on VIP suppression of T-cell proliferation ([5]; VIP plus VIPhyb in MLR): reversed the suppressive effect of VIP; also recorded: mitigated the inhibitory effect | concentration of peak efficacy ([9]; T cell proliferation in MLR): 300 µg/mL | effect on inhibitory effects of VIP on T cell proliferation in vitro ([9]; 0 ug/mL to 975 ug/mL): counteracted the inhibitory effects of VIP | levels of PD-1 expression ([10]; 3 uM VIPhyb, flow cytometry, compared with control cultures without VIP antagonist): decreased | T-cell proliferation in the subsets lacking either CD27 or CD28 ([10]; addition of VIPhyb, anti-CD3/CD28 beads): augmented | proportion of Ki67 positive T-cells ([10]; daily addition of 3 uM VIPhyb, total T-cells of anergic lymphoma patient, anti-CD3/anti-CD28 beads, four days of culture, 90% without VIPhyb): 100% | frequency of CD27+CD28+ cells [2]: increases | frequency of CD27−CD28− cells [2]: decreasing | therapeutic efficacy of mouse T cells expanded in presence of the compounds [3]: enhances | fraction of senescent T cells that lacked both CD27 and CD28 ([4]; 3 uM VIPhyb): 35.7% | numbers of effector memory T cells (Tem) [4]: increased | in vitro expansion of senescent T cells [4]: significantly expanded

VIPhyb-NP: VIPhyb with C-terminal linker (SEQ ID NO: 13) conjugated to a 30 nm poloxamer-stabilized polypropylene sulfide nanoparticle (KPRRPYTDNYTRLRKQMAVKKYLNSILNGGGGSC; also: conjugated to polypropylene sulfide nanoparticle)
average radiance (T cell proliferation) ([11]; VIPhyb-NP 0-2.5 uM daily for 3 days, read on day 3): significant dose-dependent increase | effect on immunosuppressive effects of VIP ([11]; VIPhyb-NP 0-2.5 uM, then VIP 0-10 uM 30 minutes later): able to counteract the immunosuppressive effects of VIP | dose dependence of effect on T cell proliferation ([9]; 0 ug/mL to 975 ug/mL): dose-dependent | effect on inhibitory effects of VIP on T cell proliferation in vitro ([9]; 0 ug/mL to 975 ug/mL): counteracted the inhibitory effects of VIP

B1: mast cell chymase: human mast cell chymase (CMA1), an enzyme that degrades endogenous VIP (protein, UniProt P23946 22-247, looked up)
Chymase: IIGGTECKPHSRPYMAYLEIVTSNGPSKFCGGFLIRRNFVLTAAHCAGRSITVTLGAHNITEEEDTWQKLEVIKQFRHPKYNTSTLHHDIMLLKLKEKASLTLAVGTLPFPSQFNFVPPGRMCRVAGWGRTGVLKPGSDTLQEVKLRLMDPQACSHFRDFDHNLQLCVGNPRKTKSAFKGDSGGPLLCAGVAQGIVSYGRSDAKPPAVFTRISHYRPWINQILQAN
fraction of senescent T cells that lacked both CD27 and CD28 ([4]; 1 μg per ml mast cell chymase): 37.4% | in vitro expansion of senescent T cells [4]: significantly expanded

B2: IL 12: IL 12 added to T-cell cultures (protein, UniProt P29459 23-219; P29460 23-328, looked up)
Interleukin-12 subunit alpha: RNLPVATPDPGMFPCLHHSQNLLRAVSNMLQKARQTLEFYPCTSEEIDHEDITKDKTSTVEACLPLELTKNESCLNSRETSFITNGSCLASRKTSFMMALCLSSIYEDLKMYQVEFKTMNAKLLMDPKRQIFLDQNMLAVIDELMQALNFNSETVPQKSSLEEPDFYKTKIKLCILLHAFRIRAVTIDRVMSYLNAS
Interleukin-12 subunit beta: IWELKKDVYVVELDWYPDAPGEMVVLTCDTPEEDGITWTLDQSSEVLGSGKTLTIQVKEFGDAGQYTCHKGGEVLSHSLLLLHKKEDGIWSTDILKDQKEPKNKTFLRCEAKNYSGRFTCWWLTTISTDLTFSVKSSRGSSDPQGVTCGAATLSAERVRGDNKEYEYSVECQEDSACPAAEESLPIEVMVDAVHKLKYENYTSSFFIRDIIKPDPPKNLQLKPLKNSRQVEVSWEYPDTWSTPHSYFSLTFCVQVQGKSKREKKDRVFTDKTSATVICRKNASISVRAQDRYYSSSWSEWASVPCS
proliferation fraction of T-cells, CD28 negative and CD27 negative subsets ([10]; addition of IL 12 to the cultures): significant impact in increasing the proliferation fraction of T-cells that were CD28 negative but not those that were CD27 negative
